Data from patent US8916702B2 (priority 2012, dated 2014).
pEC50: −log10 of the molar value.

Tested on: HCV pseudoparticles (genotype 1a HCV E1 and E2 envelope, H77C isolate)
Assay: microbe, parasite or virus in culture
Type: cell-based
Details: Hepatitis C virus, Huh-7, 48 h, HCV pseudoparticle infection of Huh7 cells, luciferase 2 days after infection; average of duplicates

Compound | pEC50
COC(=O)[C@H](CNC(=O)C(=O)Nc1ccnc(OC)c1)NC(=O)c1ccc(Nc2nc(NC3(c4ccc(Cl)cc4)CC3)nc(OCC(F)(F)F)n2)cc1 [Compound 1241] | 9.00

Same assay, conditions: Hepatitis C virus, Huh-7, 48 h, HCV pseudoparticles (genotype 1a, H77C) in Huh7 cells; average of duplicate; luciferase 2 days after infection

Compound | pEC50
CC(C)(CNC(=O)C(=O)Nc1ccnn1-c1ccccc1)CNC(=O)c1ccc(Nc2nc(NC3(c4ccc(Cl)cc4)CC3)nc(OCC(F)(F)F)n2)cc1 [Compound 3029] | 10.15
CC(C)(CNC(=O)C(N)=O)CNC(=O)c1ccc(Nc2nc(NC3(c4ccccc4)CC3)nc(OCC(F)(F)F)n2)cc1 [Compound 3244] | 10.15
CC(C)(CNC(=O)C(=O)Nc1cccc(F)c1F)CNC(=O)c1ccc(Nc2nc(NC3(c4ccc(Cl)cc4)CC3)nc(OCC(F)(F)F)n2)cc1 [Compound 3261] | 10.14
CC(C)(CNC(=O)C(=O)Nc1ccccc1C(=O)c1ccccc1)CNC(=O)c1ccc(Nc2nc(NC3(c4ccc(Cl)cc4)CC3)nc(OCC(F)(F)F)n2)cc1 [Compound 3141] | 9.96
CC(C)(CNC(=O)C(=O)Nc1ccc(C(=O)c2ccc(NC(=O)CCCCCNC(=O)CCCC[C@H]3SC[C@@H]4NC(=O)N[C@@H]43)cc2)cc1)CNC(=O)c1ccc(Nc2nc(NC3(c4ccc(Cl)cc4)CC3)nc(OCC(F)(F)F)n2)cc1 [Compound 3558] | 9.59

Same assay, conditions: Hepatitis C virus, Huh-7, 48 h, HCV pseudoparticles, Huh7 cells, luciferase 2 days after infection; average of duplicates

Compound | pEC50
COC(=O)[C@H](CNC(=O)C(=O)Nc1cccc(Oc2ccccc2)c1)NC(=O)c1ccc(Nc2nc(NC3(c4ccc(Cl)cc4)CC3)nc(OCC(F)(F)F)n2)cc1 [Compound 3694] | 8.65
Cc1nnc(-c2ccc(NC(=O)C(=O)NCC(C)(C)CNC(=O)c3ccc(Nc4nc(NC5(c6ccc(Cl)cc6)CC5)nc(OCC(F)(F)F)n4)cc3)cc2)[nH]1 [Compound 3674] | 9.82

Same assay, conditions: Hepatitis C virus, Huh-7, 48 h, read-out: Activity (EC50 class), HCV pseudoparticle infection of Huh7 cells, luciferase 2 days after infection; EC50 expressed as class A/B

Compound | pEC50
COC(=O)[C@H](CNC(=O)C(=O)N[C@H]1C[C@H](C)CC[C@H]1C(C)C)NC(=O)c1ccc(Nc2nc(NC3(c4ccc(Cl)cc4)CC3)nc(OCC(F)(F)F)n2)cc1 [Compound 1067] | 8.00 to 11.00
COC(=O)[C@H](CCNC(=O)C(=O)Nc1cccc(OC)c1)NC(=O)c1ccc(Nc2nc(NC3(c4ccc(Cl)cc4)CC3)nc(OCC(F)(F)F)n2)cc1 [Compound 1228] | 8.00 to 11.00
COC(=O)[C@H](CNC(=O)C(=O)NCc1ccccc1OC)NC(=O)c1ccc(Nc2nc(NC3(c4ccc(Cl)cc4)CC3)nc(OCC(F)(F)F)n2)cc1 [Compound 1150] | 8.00 to 11.00
O=C(NCCc1ccccc1)C(=O)NCC[C@H](NC(=O)c1ccc(Nc2nc(NC3(c4ccc(Cl)cc4)CC3)nc(OCC(F)(F)F)n2)cc1)C(=O)O [Compound 1328] | 8.00 to 11.00
COC(=O)[C@@H](CCNC(=O)C(=O)NCC1(Cn2nc(C)cc2C)CC1)NC(=O)c1ccc(Nc2nc(NC3(c4ccc(Cl)cc4)CC3)nc(OCC(F)(F)F)n2)cc1 [Compound 1383] | 8.00 to 11.00
O=C(NCC[C@H](NC(=O)c1ccc(Nc2nc(NC3(c4ccc(Cl)cc4)CC3)nc(OCC(F)(F)F)n2)cc1)C(=O)O)C(=O)NC1CCCCC1 [Compound 1179] | 8.00 to 11.00
CC(C)(CNC(=O)C(=O)Nc1cc(F)c(F)c(F)c1)CNC(=O)c1ccc(Nc2nc(NC3(c4ccc(Cl)cc4)CC3)nc(OCC(F)(F)F)n2)cc1 [Compound 1558] | 8.00 to 11.00
CC(C)(CNC(=O)C(=O)Nc1ccccc1-c1ccccc1)CNC(=O)c1ccc(Nc2nc(NC3(c4ccc(Cl)cc4)CC3)nc(OCC(F)(F)F)n2)cc1 [Compound 1572] | 8.00 to 11.00
CC(C)(C)C1CCC(NC(=O)C(=O)NC[C@H](NC(=O)c2ccc(Nc3nc(NC4(c5ccc(Cl)cc5)CC4)nc(OCC(F)(F)F)n3)cc2)C(=O)O)CC1 (stereo partly shown) [Compound 1090] | 8.00 to 11.00
COC(=O)[C@H](CNC(=O)C(=O)NCC1CCCCCC1)NC(=O)c1ccc(Nc2nc(NC3(c4ccc(Cl)cc4)CC3)nc(OCC(F)(F)F)n2)cc1 [Compound 1451] | 8.00 to 11.00
CCOC(=O)[C@H](CNC(=O)C(=O)N(C)C)NC(=O)c1ccc(Nc2nc(NC3(c4ccc(Cl)cc4)CC3)nc(OCC(F)(F)F)n2)cc1 [Compound 1020, (S)-ethyl 2-(4-(4-(1-(4-chlorophenyl)cyclopropylamino)-6-(2,2,2-trifluoroethoxy)-1,3,5-triazin-2-ylamino)benzamido)-3-(2-(dimethylamino)-2-oxoacetamido)propanoate] | 8.00 to 11.00
COC(=O)[C@H](CCNC(=O)C(=O)NCc1cccc(F)c1)NC(=O)c1ccc(Nc2nc(NC3(c4ccc(Cl)cc4)CC3)nc(OCC(F)(F)F)n2)cc1 [Compound 1139] | 8.00 to 11.00
O=C(NC[C@H](NC(=O)c1ccc(Nc2nc(NC3(c4ccc(Cl)cc4)CC3)nc(OCC(F)(F)F)n2)cc1)C(=O)O)C(=O)N[C@@H]1C[C@H]1c1ccccc1 [Compound 1406] | 8.00 to 11.00
CCc1cccc(NC(=O)C(=O)NCC(C)(C)CNC(=O)c2ccc(Nc3nc(NC4(c5ccc(Cl)cc5)CC4)nc(OCC(F)(F)F)n3)cc2)c1 [Compound 1591] | 8.00 to 11.00
CC1(C)CC(NC(=O)C(=O)NCC[C@H](NC(=O)c2ccc(Nc3nc(NC4(c5ccc(Cl)cc5)CC4)nc(OCC(F)(F)F)n3)cc2)C(=O)O)CC(C)(C)C1 [Compound 1115] | 8.00 to 11.00
COC(=O)[C@H](CNC(=O)C(=O)Nc1cn[nH]c1)NC(=O)c1ccc(Nc2nc(NC3(c4ccc(Cl)cc4)CC3)nc(OCC(F)(F)F)n2)cc1 [Compound 1246] | 8.00 to 11.00
O=C(NCC[C@H](NC(=O)c1ccc(Nc2nc(NC3(c4ccc(Cl)cc4)CC3)nc(OCC(F)(F)F)n2)cc1)C(=O)O)C(=O)NCC1(CN2CCOCC2)CC1 [Compound 1426] | 8.00 to 11.00
O=C(NCC1CCCc2ccccc21)C(=O)NC[C@@H](NC(=O)c1ccc(Nc2nc(NC3(c4ccc(Cl)cc4)CC3)nc(OCC(F)(F)F)n2)cc1)C(=O)O (stereo partly shown) [Compound 1410] | 8.00 to 11.00
COC(=O)[C@H](CNC(=O)C(=O)Nc1ccnc(OC)c1)NC(=O)c1ccc(Nc2nc(NC3(c4ccc(Cl)cc4)CC3)nc(OCC(F)(F)F)n2)cc1 [Compound 1241] | 8.00 to 11.00
CCOC(=O)[C@H](CCCNC(=O)C(=O)N(C)C)NC(=O)c1ccc(Nc2nc(NC3(c4ccc(Cl)cc4)CC3)nc(OCC(F)(F)F)n2)cc1 [Compound 1031, (S)-ethyl 2-(4-(4-(1-(4-chlorophenyl)cyclopropylamino)-6-(2,2,2-trifluoroethoxy)-1,3,5-triazin-2-ylamino)benzamido)-5-(2-(dimethylamino)-2-oxoacetamido)pentanoate] | 8.00 to 11.00
COC(=O)[C@H](CCNC(=O)C(=O)Nc1ccc(-c2ccccc2)cc1)NC(=O)c1ccc(Nc2nc(NC3(c4ccc(Cl)cc4)CC3)nc(OCC(F)(F)F)n2)cc1 [Compound 1524] | 8.00 to 11.00
Cc1cc(C)n(CC2(CNC(=O)C(=O)NCC[C@H](NC(=O)c3ccc(Nc4nc(NC5(c6ccc(Cl)cc6)CC5)nc(OCC(F)(F)F)n4)cc3)C(=O)O)CC2)n1 [Compound 1427] | 8.00 to 11.00
COC(=O)[C@H](CCNC(=O)C(=O)N[C@H]1C[C@H]2C[C@@H]([C@H]1C)C2(C)C)NC(=O)c1ccc(Nc2nc(NC3(c4ccc(Cl)cc4)CC3)nc(OCC(F)(F)F)n2)cc1 [Compound 1074] | 8.00 to 11.00

Same assay, conditions: Hepatitis C virus, Huh-7, 48 h, read-out: Activity (EC50 class), HCV pseudoparticles, Huh7 cells, luciferase 2 days after infection; average of duplicates

Compound | pEC50
CC(=O)Nc1ccc(NC(=O)C(=O)NCC[C@H](NC(=O)c2ccc(Nc3nc(NC4(c5ccc(Cl)cc5)CC4)nc(OCC(F)(F)F)n3)cc2)C(=O)O)cn1 [Compound 3631] | 8.00 to 11.00
COC(=O)[C@H](CNC(=O)C(=O)Nc1cccc(Oc2ccccc2)c1)NC(=O)c1ccc(Nc2nc(NC3(c4ccc(Cl)cc4)CC3)nc(OCC(F)(F)F)n2)cc1 [Compound 3694] | 8.00 to 11.00
Cc1csc(-c2cccc(NC(=O)C(=O)NC[C@H](NC(=O)c3ccc(Nc4nc(NC5(c6ccc(Cl)cc6)CC5)nc(OCC(F)(F)F)n4)cc3)C(=O)Cl)c2)n1 [Compound 3780] | 8.00 to 11.00
COC(=O)[C@H](CNC(=O)C(=O)Nc1ccc(N)nc1)NC(=O)c1ccc(Nc2nc(NC3(c4ccc(Cl)cc4)CC3)nc(OCC(F)(F)F)n2)cc1 [Compound 3705] | 8.00 to 11.00
Cc1nnc(-c2ccc(NC(=O)C(=O)NCC(C)(C)CNC(=O)c3ccc(Nc4nc(NC5(c6ccc(Cl)cc6)CC5)nc(OCC(F)(F)F)n4)cc3)cc2)[nH]1 [Compound 3674] | 8.00 to 11.00
CC(C)(CNC(=O)C(=O)Nc1nc2ccc(OC(F)(F)F)cc2s1)CNC(=O)c1ccc(Nc2nc(NC3(c4ccc(Cl)cc4)CC3)nc(OCC(F)(F)F)n2)cc1 [Compound 3823] | 8.00 to 11.00

Same assay, conditions: Hepatitis C virus, Huh-7, read-out: Activity (EC50 class), HCV pseudoparticles (genotype 1a, H77C) in Huh7 cells; EC50 expressed as class A/B

Compound | pEC50
COC(=O)[C@H](CCNC(=O)C(=O)Nc1ccc(Cn2cncn2)cc1)NC(=O)c1ccc(Nc2nc(NC3(c4ccc(Cl)cc4)CC3)nc(OCC(F)(F)F)n2)cc1 [Compound 3299] | 8.00 to 11.00
CC(C)(CNC(=O)C(=O)Nc1ccc(C#N)cc1F)CNC(=O)c1ccc(Nc2nc(NC3(c4ccc(Cl)cc4)CC3)nc(OCC(F)(F)F)n2)cc1 [Compound 3383] | 8.00 to 11.00
CC(C)(CNC(=O)C(=O)Nc1ccnn1-c1ccccc1)CNC(=O)c1ccc(Nc2nc(NC3(c4ccc(Cl)cc4)CC3)nc(OCC(F)(F)F)n2)cc1 [Compound 3029] | 8.00 to 11.00
CC(C)(CNC(=O)C(N)=O)CNC(=O)c1ccc(Nc2nc(NC3(c4ccccc4)CC3)nc(OCC(F)(F)F)n2)cc1 [Compound 3244] | 8.00 to 11.00
O=C(NC[C@H](NC(=O)c1ccc(Nc2nc(NC3(c4ccc(Cl)cc4)CC3)nc(OCC(F)(F)F)n2)cc1)C(=O)O)C(=O)Nc1ccc(Oc2cccnc2)cc1 [Compound 3290] | 8.00 to 11.00
COc1ccc(NC(=O)C(=O)NCC(C)(C)CNC(=O)c2ccc(Nc3nc(NC4(c5ccc(Cl)cc5)CC4)nc(OCC(F)(F)F)n3)cc2)c(OC)n1 [Compound 3077] | 8.00 to 11.00
CCOc1ccc(NC(=O)C(=O)NCC(C)(C)CNC(=O)c2ccc(Nc3nc(NC4(c5ccc(Cl)cc5)CC4)nc(OCC(F)(F)F)n3)cc2)cc1 [Compound 3062] | 8.00 to 11.00
Cn1cnc2ccc(NC(=O)C(=O)NCC(C)(C)CNC(=O)c3ccc(Nc4nc(NC5(c6ccc(Cl)cc6)CC5)nc(OCC(F)(F)F)n4)cc3)cc21 [Compound 3341] | 8.00 to 11.00
CC(C)(CNC(=O)C(=O)Nc1nc2ccccc2s1)CNC(=O)c1ccc(Nc2nc(NC3(c4ccc(Cl)cc4)CC3)nc(OCC(F)(F)F)n2)cc1 [Compound 3376] | 8.00 to 11.00
CC(C)(CNC(=O)C(N)=O)CNC(=O)c1ccc(Nc2nc(NC3(c4ccccc4Cl)CC3)nc(OCC(F)(F)F)n2)cc1 [Compound 3265] | 6.00 to 8.00
CC(C)(CNC(=O)C(=O)NS(=O)(=O)C1CC1)CNC(=O)c1ccc(Nc2nc(NC3(c4ccc(Cl)cc4)CC3)nc(OCC(F)(F)F)n2)cc1 [Compound 3032] | 8.00 to 11.00
NC(=O)C(=O)N1CCCC(CNC(=O)c2ccc(Nc3nc(NC4(c5ccc(Cl)cc5)CC4)nc(OCC(F)(F)F)n3)cc2)C1 (stereo not shown) [Compound 3480] | 8.00 to 11.00
CC(C)(CNC(=O)C(=O)Nc1cccc(F)c1F)CNC(=O)c1ccc(Nc2nc(NC3(c4ccc(Cl)cc4)CC3)nc(OCC(F)(F)F)n2)cc1 [Compound 3261] | 8.00 to 11.00
CC(C)(CNC(=O)C(=O)Nc1ccccc1C(=O)c1ccccc1)CNC(=O)c1ccc(Nc2nc(NC3(c4ccc(Cl)cc4)CC3)nc(OCC(F)(F)F)n2)cc1 [Compound 3141] | 8.00 to 11.00
CC(C)(CNC(=O)C(=O)Nc1ccc(C(=O)c2ccc(NC(=O)CCCCCNC(=O)CCCC[C@H]3SC[C@@H]4NC(=O)N[C@@H]43)cc2)cc1)CNC(=O)c1ccc(Nc2nc(NC3(c4ccc(Cl)cc4)CC3)nc(OCC(F)(F)F)n2)cc1 [Compound 3558] | 8.00 to 11.00
